{"source": "paper PMC5762315", "about": "“Inhibition of polo-like kinase 4 (PLK4): a new therapeutic option for rhabdoid tumors and pediatric medulloblastoma” (Oncotarget, 2017)", "experiment_in_all_cases": "biochemical", "format_in_all_cases": "biochemical", "key": {"various kinases [1]": {"target": "various kinases (Homo sapiens, UniProt P80192)", "conditions": "MAP3K9 (MLK1)"}, "various kinases [2]": {"target": "various kinases (Homo sapiens, UniProt P49137)", "conditions": "MAPKAPK2"}, "various kinases [3]": {"target": "various kinases (Homo sapiens, UniProt P42685)", "conditions": "FRK (PTK5)"}, "various kinases [4]": {"target": "various kinases (Homo sapiens, UniProt Q9UM73)", "conditions": "ALK"}, "various kinases [5]": {"target": "T1, various kinases (Homo sapiens, UniProt Q96PF2)", "T1 sequence (Q96PF2 1-358)": "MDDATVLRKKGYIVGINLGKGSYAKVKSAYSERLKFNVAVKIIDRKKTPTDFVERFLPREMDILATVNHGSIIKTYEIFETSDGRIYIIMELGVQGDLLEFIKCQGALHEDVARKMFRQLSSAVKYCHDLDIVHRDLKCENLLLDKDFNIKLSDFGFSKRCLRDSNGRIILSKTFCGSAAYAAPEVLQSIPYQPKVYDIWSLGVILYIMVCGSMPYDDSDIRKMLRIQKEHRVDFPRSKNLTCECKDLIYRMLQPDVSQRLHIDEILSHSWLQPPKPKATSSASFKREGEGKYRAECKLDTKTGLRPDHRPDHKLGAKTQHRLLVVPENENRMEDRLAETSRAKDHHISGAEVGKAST", "conditions": "kinase STK22B (TSSK2); ZLYTE"}, "various kinases [6]": {"target": "T2, various kinases (Homo sapiens, UniProt Q05513)", "T2 sequence (Q05513 1-592)": "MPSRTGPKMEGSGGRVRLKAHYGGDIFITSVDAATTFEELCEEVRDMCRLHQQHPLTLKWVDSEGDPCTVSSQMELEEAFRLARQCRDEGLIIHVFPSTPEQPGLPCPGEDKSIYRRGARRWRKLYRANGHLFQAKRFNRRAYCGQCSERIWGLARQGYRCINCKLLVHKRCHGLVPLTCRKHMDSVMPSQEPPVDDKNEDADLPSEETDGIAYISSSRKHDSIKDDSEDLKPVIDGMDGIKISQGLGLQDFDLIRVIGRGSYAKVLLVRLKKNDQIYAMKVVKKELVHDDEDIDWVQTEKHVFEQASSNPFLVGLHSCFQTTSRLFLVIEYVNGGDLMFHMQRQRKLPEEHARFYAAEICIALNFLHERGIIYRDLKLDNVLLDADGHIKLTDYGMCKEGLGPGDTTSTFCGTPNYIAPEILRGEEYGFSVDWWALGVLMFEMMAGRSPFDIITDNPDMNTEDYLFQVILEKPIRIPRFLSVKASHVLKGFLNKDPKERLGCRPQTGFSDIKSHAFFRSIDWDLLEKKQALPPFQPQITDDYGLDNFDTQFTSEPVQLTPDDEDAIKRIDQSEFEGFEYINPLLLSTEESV", "conditions": "kinase PRKCZ (PKC zeta); ZLYTE"}, "various kinases [7]": {"target": "various kinases (Homo sapiens, UniProt P00533, C797S)", "sequence (P00533 25-1210 C797S)": "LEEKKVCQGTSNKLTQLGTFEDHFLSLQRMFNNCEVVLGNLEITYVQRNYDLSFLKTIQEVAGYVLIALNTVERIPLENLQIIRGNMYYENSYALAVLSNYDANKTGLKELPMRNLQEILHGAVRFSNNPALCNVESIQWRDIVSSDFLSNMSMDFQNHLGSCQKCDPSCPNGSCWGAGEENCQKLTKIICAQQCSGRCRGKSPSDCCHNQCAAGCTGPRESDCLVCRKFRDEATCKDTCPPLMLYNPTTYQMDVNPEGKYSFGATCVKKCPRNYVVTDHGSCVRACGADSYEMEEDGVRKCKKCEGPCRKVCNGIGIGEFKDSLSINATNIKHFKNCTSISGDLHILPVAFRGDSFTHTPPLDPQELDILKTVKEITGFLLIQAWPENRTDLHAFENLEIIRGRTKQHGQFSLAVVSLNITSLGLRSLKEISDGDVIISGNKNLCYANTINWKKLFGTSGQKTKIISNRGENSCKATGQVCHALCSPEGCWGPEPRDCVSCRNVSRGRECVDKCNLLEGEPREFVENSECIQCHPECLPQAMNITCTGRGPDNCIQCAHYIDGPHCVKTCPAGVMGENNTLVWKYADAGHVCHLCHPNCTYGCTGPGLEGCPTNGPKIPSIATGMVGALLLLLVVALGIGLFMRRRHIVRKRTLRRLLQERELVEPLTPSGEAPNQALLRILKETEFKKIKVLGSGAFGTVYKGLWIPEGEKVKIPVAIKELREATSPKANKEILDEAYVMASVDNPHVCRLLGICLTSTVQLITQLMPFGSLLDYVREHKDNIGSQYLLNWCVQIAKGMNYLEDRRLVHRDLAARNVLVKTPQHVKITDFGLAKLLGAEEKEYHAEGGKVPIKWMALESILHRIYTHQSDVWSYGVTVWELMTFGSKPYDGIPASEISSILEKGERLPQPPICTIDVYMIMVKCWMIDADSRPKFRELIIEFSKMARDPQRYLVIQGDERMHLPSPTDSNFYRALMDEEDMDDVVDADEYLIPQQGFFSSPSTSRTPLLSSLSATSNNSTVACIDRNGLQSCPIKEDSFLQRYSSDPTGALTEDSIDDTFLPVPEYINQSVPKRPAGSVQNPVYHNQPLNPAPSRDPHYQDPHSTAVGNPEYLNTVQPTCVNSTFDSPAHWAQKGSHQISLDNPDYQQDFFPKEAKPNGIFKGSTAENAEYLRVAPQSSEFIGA", "conditions": "EGFR (ErbB1) C797S"}, "various kinases [8]": {"target": "various kinases (Homo sapiens, UniProt Q16566)", "sequence (Q16566 whole entry)": "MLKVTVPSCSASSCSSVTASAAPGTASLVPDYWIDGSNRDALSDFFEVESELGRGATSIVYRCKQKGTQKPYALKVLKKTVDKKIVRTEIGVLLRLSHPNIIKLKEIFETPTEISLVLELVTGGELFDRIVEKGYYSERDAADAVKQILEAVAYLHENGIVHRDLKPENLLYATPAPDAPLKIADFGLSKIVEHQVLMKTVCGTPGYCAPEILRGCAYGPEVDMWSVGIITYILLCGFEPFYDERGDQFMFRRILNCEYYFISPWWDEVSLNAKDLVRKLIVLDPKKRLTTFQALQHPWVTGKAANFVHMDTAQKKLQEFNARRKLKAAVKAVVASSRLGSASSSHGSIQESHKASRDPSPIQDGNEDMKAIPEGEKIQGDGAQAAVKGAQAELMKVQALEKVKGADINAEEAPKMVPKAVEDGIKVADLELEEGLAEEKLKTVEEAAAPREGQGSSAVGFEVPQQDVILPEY", "conditions": "CAMK4 (CaMKIV)"}, "various kinases [9]": {"target": "various kinases (Homo sapiens, UniProt P17252)", "conditions": "kinase PRKCA (PKC alpha); ZLYTE"}, "various kinases [10]": {"target": "various kinases (Homo sapiens, UniProt P36507)", "conditions": "MAP2K2 (MEK2)"}, "various kinases [11]": {"target": "various kinases (Homo sapiens, UniProt O60674)"}, "various kinases [12]": {"target": "various kinases (Homo sapiens, UniProt Q07002)", "conditions": "CDK18/cyclin Y"}, "various kinases [13]": {"target": "various kinases (Homo sapiens, UniProt P35916)", "sequence (P35916 25-1363)": "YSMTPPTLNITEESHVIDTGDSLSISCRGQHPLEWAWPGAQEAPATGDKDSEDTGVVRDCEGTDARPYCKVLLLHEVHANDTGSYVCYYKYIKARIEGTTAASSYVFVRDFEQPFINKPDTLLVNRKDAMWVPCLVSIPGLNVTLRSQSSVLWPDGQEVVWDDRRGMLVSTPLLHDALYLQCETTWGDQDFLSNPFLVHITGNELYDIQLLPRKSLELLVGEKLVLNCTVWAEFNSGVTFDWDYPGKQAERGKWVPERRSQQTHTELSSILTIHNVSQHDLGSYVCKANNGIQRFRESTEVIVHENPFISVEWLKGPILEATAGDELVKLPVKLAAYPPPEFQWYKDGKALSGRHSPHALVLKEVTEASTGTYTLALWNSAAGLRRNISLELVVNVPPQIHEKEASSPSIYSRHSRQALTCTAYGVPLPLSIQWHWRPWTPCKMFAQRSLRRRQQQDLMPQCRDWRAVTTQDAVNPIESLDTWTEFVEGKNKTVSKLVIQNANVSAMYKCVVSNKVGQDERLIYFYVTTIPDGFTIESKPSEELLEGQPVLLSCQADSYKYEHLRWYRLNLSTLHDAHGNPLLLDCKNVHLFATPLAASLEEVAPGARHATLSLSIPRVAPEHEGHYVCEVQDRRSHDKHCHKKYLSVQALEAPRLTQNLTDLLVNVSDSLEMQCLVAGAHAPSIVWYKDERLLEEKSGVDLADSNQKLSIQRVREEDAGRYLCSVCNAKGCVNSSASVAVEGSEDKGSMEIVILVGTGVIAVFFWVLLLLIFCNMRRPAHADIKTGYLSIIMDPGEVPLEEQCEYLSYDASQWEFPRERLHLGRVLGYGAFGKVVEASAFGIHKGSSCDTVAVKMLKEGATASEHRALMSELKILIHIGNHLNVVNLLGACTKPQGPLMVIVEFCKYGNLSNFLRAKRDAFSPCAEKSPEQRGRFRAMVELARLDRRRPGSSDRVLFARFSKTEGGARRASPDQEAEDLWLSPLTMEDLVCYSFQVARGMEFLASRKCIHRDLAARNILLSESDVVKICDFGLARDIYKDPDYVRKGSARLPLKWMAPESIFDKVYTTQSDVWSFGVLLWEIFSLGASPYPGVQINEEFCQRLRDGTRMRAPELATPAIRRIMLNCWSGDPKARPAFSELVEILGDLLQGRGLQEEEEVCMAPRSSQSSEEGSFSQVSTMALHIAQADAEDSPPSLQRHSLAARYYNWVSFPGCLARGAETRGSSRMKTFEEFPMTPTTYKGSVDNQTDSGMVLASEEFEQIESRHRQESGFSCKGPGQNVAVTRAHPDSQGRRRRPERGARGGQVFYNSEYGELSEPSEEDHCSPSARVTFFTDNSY", "conditions": "FLT4 (VEGFR3)"}, "various kinases [14]": {"target": "various kinases (Homo sapiens, UniProt Q9P286)", "sequence (Q9P286 whole entry)": "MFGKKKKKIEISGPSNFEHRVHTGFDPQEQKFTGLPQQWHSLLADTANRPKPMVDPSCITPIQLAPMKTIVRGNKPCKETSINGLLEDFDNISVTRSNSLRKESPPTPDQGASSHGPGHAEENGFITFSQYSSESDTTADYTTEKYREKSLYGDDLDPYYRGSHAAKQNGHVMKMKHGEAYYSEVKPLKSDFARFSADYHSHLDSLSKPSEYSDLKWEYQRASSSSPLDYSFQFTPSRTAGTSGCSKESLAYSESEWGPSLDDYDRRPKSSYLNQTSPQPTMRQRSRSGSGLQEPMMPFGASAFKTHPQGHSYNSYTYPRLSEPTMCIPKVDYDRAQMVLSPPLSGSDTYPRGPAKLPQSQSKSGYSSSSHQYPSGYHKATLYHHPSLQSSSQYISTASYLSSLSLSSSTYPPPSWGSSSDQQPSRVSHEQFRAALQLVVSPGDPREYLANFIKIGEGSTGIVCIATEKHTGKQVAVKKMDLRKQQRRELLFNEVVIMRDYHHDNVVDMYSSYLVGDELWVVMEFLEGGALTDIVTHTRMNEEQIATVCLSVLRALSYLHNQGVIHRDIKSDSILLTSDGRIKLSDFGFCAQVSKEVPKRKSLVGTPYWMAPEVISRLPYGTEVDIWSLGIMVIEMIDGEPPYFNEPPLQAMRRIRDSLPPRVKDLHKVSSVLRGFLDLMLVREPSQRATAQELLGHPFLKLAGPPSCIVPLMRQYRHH", "conditions": "PAK7 (KIAA1264)"}, "various kinases [15]": {"target": "various kinases (Homo sapiens, UniProt Q9H3Y6)", "sequence (Q9H3Y6 whole entry)": "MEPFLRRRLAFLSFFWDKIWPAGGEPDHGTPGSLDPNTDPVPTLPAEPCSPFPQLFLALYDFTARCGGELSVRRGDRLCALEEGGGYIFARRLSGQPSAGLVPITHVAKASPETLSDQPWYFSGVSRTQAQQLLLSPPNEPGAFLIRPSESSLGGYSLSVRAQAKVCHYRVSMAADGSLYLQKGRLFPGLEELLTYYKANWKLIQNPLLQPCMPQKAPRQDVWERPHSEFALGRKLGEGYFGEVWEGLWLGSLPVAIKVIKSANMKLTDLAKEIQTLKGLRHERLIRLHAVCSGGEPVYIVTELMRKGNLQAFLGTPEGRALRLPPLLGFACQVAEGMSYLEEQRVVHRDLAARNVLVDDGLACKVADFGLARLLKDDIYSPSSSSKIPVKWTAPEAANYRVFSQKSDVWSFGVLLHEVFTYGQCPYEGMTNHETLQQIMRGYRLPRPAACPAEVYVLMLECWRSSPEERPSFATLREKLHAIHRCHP", "conditions": "kinase SRMS (Srm); ZLYTE"}, "various kinases [16]": {"target": "various kinases (Homo sapiens, UniProt O15075)", "conditions": "DCAMKL1 (DCLK1)"}, "various kinases [17]": {"target": "T3, various kinases (Homo sapiens, UniProt P41743)", "T3 sequence (P41743 1-596)": "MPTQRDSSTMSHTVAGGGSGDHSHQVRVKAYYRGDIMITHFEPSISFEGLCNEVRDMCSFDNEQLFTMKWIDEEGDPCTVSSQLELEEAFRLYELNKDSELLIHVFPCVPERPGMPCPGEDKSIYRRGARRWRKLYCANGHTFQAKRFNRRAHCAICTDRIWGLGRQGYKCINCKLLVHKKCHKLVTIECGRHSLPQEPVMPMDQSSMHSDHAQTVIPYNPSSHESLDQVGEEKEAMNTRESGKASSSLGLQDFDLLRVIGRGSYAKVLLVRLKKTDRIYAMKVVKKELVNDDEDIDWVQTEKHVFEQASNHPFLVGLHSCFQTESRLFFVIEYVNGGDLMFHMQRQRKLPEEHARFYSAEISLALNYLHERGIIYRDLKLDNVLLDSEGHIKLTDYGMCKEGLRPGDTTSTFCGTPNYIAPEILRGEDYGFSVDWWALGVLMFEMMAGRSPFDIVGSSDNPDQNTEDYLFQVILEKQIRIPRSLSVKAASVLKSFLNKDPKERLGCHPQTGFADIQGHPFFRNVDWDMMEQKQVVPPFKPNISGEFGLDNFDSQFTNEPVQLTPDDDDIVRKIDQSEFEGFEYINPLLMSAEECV", "conditions": "kinase PRKCI (PKC iota); ZLYTE"}, "various kinases [18]": {"target": "various kinases (Homo sapiens, UniProt P09769)", "conditions": "FGR"}}, "note": "Several values for one entry are separate records, joined by “and”; a condition that tells them apart may be missing. Identical values can stand only once.", "data": [{"smiles": "COc1ccc2c(c1)[C@]1(C[C@H]1c1ccc3c(/C=C/c4ccc(CN5C[C@@H](C)O[C@@H](C)C5)cc4)n[nH]c3c1)C(=O)N2", "note": "[CFI-400945]", "values": [{"measurement": "% Inhibition", "setting": "various kinases [1]", "result": "9% and 2%"}, {"measurement": "% Inhibition", "setting": "various kinases [2]", "result": "15% and 12%"}, {"measurement": "% Inhibition", "setting": "various kinases [3]", "result": "8% and 7%"}, {"measurement": "% Inhibition", "setting": "various kinases [4]", "result": 51, "unit": "%"}, {"measurement": "% Inhibition Average", "setting": "various kinases [5]", "result": 3, "unit": "%"}, {"measurement": "% Inhibition Duplicate #1", "setting": "various kinases [5]", "result": 4, "unit": "%"}, {"measurement": "% Inhibition Duplicate #2", "setting": "various kinases [5]", "result": 2, "unit": "%"}, {"measurement": "% Inhibition Average", "setting": "various kinases [6]", "result": -11, "unit": "%"}, {"measurement": "% Inhibition Duplicate #1", "setting": "various kinases [6]", "result": -22, "unit": "%"}, {"measurement": "% Inhibition Duplicate #2", "setting": "various kinases [6]", "result": 0, "unit": "%"}, {"measurement": "% Inhibition", "setting": "various kinases [7]", "result": "11% and 5%"}, {"measurement": "% Inhibition", "setting": "various kinases [8]", "result": "7% and -3%"}, {"measurement": "% Inhibition Average", "setting": "various kinases [9]", "result": 5, "unit": "%"}, {"measurement": "% Inhibition Duplicate #1", "setting": "various kinases [9]", "result": -1, "unit": "%"}, {"measurement": "% Inhibition Duplicate #2", "setting": "various kinases [9]", "result": 12, "unit": "%"}, {"measurement": "% Inhibition", "setting": "various kinases [10]", "result": 7, "unit": "%"}, {"measurement": "% Inhibition", "setting": "various kinases [11]; JAK2", "result": 9, "unit": "%"}, {"measurement": "% Inhibition", "setting": "various kinases [11]; JAK2 JH1 JH2", "result": 7, "unit": "%"}, {"measurement": "% Inhibition", "setting": "various kinases [12]", "result": "5% and 4%"}, {"measurement": "% Inhibition", "setting": "various kinases [13]", "result": "6% and 8%"}, {"measurement": "% Inhibition", "setting": "various kinases [14]", "result": "9% and 13%"}, {"measurement": "% Inhibition Average", "setting": "various kinases [15]", "result": 11, "unit": "%"}, {"measurement": "% Inhibition Duplicate #1", "setting": "various kinases [15]", "result": 10, "unit": "%"}, {"measurement": "% Inhibition Duplicate #2", "setting": "various kinases [15]", "result": 12, "unit": "%"}, {"measurement": "% Inhibition", "setting": "various kinases [16]", "result": -2, "unit": "%"}, {"measurement": "% Inhibition Average", "setting": "various kinases [17]", "result": 6, "unit": "%"}, {"measurement": "% Inhibition Duplicate #1", "setting": "various kinases [17]", "result": 0, "unit": "%"}, {"measurement": "% Inhibition Duplicate #2", "setting": "various kinases [17]", "result": 11, "unit": "%"}, {"measurement": "% Inhibition", "setting": "various kinases [18]", "result": "28% and 26%"}]}]}
